# According to US9808470B2, “Estrogenic components for use in the treatment of neurological disorders” (UNIVERSITE DE LIEGE, priority 2012, dated 2017):
# What was measured:
# [1] = tested on: Microtubule-associated protein 2 (MAP2); assay: Ex.3 neuroprotective HIE rat model: MAP2 staining; format: in vivo; conditions: PND14
# Method: The brain sections were processed for immunohistochemical detection of neuronal cytoskeletal disruption. For antigen retrieval, the sections were heated in 10 mmol/L citrate buffer (pH 6.0) at 100° C. for 10 minutes. Endogenous peroxidase activity was blocked with 3% hydrogen peroxide for 10 minutes and after a second blocking with 5% normal goat serum, the sections were incubated with anti-microtubule-associated protein 2 (MAP2) antibody, diluted 1:1000 (mouse monoclonal antibody; Sigma, St. Louis, Mo., US) 1 h at room temperature. After rinsing, biotinylated goat anti-mouse immunoglobulin G (Vector Laboratories, Burlingame, Calif.) was added, and antibody detection was performed with the avidin-biotin complex method (Vector Laboratories), with 3,3′-diaminobenzidine (DAB) as the chromogen. Following the reaction with DAB, the slides were washed, dehydrated, and coverslipped.
# (§1) Samples were analyzed with the aid of an image scanner (Nanozoomer Virtual Microscopy, Hamamatsu, Tokyo, Japan) and the ImageJ software (NIH, US). The MAP2 positive areas in the ipsilateral and contralateral hemispheres were measured. The ratio of the MAP2 positive areas was calculated as the MAP2 positive area of the ipsilateral hemisphere divided by the MAP2 positive area of the contralateral hemisphere. The ratio of the MAP2 positive area in the Sham group was considered by default as 1.0.
# Newborn rat pups were assigned to one of the following 6 groups from postnatal day 4: Sham group (n=24), Vehicle group (n=14), E4 1 mg/kg/per day group (n=11), E4 5 mg/kg/per day group (n=14), E4 10 mg/kg/per day group (n=14), or E4 50 mg/kg/per day group (n=19). From postnatal day 4, rat pups were intraperitoneally injected either vehicle (Vehicle group) or E4 (1, 5, 10, or 50 mg/kg/per day in accordance to the E4 group assignment) or neither vehicle nor E4 (Sham group). At day 7, 30 minutes after last injection, animals were anesthetized with isoflurane (induction, 3.0%; maintenance, 1.5%), and the rat pups from Vehicle and E4 groups passed through surgery encompassing left common carotid artery double ligation and cut. After the procedure, the pups were returned to their dams and were allowed to recover for 1 hour. The pups were then placed in the humidified hypoxic in vivo cabinet (CoyLab, Grass Lake, Mich., USA). Hypoxia was produced by the inhalation of 11%-8% of oxygen balanced by nitrogen at decreased concentration of oxygen for 20 minutes, followed by inhalation of 8% oxygen and 92% nitrogen at constant concentration for 35 minutes. All the manipulations were performed at 37° C. The Sham group went through similar procedures without left common carotid artery ligation followed by hypoxia nor injection. […]
# [2] = tested on: Microtubule-associated protein 2 (MAP2); assay: Ex.8 therapeutic HIE rat model: MAP2 staining; format: in vivo
# Method: To study the therapeutic effect of estetrol, newborn rat pups were assigned to one of the following 14 groups at postnatal day 7 (FIG. 23(B)): Sham group (n=12), Vehicle (n=15), 5 mg/kg/day E4 (n=11), 10 mg/kg/day E4 (n=11), 5 mg/kg/day E4+1.6 mg/kg/day PROG (n=11), 10 mg/kg/day E4+1.6 mg/kg/day PROG (n=11), 5 mg/kg/day E4+16 mg/kg/day PROG (n=11), 10 mg/kg/day E4+16 mg/kg/day PROG (n=13), 5 mg/kg/day E4+136 ng//kg/day E2 (n=11), 10 mg/kg/day E4+136 ng/kg/day E2 (n=11), 5 mg/kg/day E4+1.6 mg/kg/day PROG+136 ng/kg/day E2 (n=12), 10 mg/kg/day E4+1.6 mg/kg/day PROG+136 ng/kg/day E2 (n=11), 5 mg/kg/day E4+16 mg/kg/day PROG+136 ng/kg/day E2 (n=11), 10 mg/kg/day E4+16 mg/kg/day PROG+136 ng/kg/day (n=12) groups. […] After surgery, the pups were returned to their dams and allowed to recover for 1 hour. The pups were then placed in a humidified hypoxic in vivo cabinet (CoyLab). […]
# as §1, with “The brain sections were processed for immunohistochemical detection of neuronal cytoskeletal disruption. […] Samples” for “Samples”, “The” for “The MAP2”, “The ratio of the MAP2 positive area in the Sham group was considered by default as 1.0.” left out
smiles,measurement,setting,value
"C[C@]12CC[C@@H]3c4ccc(O)cc4CC[C@H]3[C@@H]1[C@@H](O)[C@@H](O)[C@@H]2O [E4, 1,3,5(10)-estratrien-3,15α,16α,17β-tetrol]",ratio of MAP2-positive area (ipsilateral/contralateral),[1]; 1 mg/kg E4 ip PND4-7 before HI,0.929±0.019
same,ratio of MAP2-positive area (ipsilateral/contralateral),[1]; 5 mg/kg E4 ip PND4-7 before HI,0.889±0.063
same,ratio of MAP2-positive area (ipsilateral/contralateral),[1]; 10 mg/kg E4 ip PND4-7 before HI,0.898±0.022
same,ratio of MAP2-positive area (ipsilateral/contralateral),[1]; 50 mg/kg E4 ip PND4-7 before HI,0.922±0.031
same,MAP-2 positive area ratio,[2]; 5 mg/kg/day E4,0.98±0.02
same,MAP-2 positive area ratio,[2]; 10 mg/kg/day E4,0.97±0.04
